The source of these data is patent publication US20260034123A1 (Cedilla Therapeutics, Inc., priority 2022, published 2026).

Assay [1] addresses T1, CDK2/Cyclin E1 (Homo sapiens, UniProt P24941). In words: ADP-Glo Luminescent Kinase Assay (CDK2/E1-37C). The format is biochemical. Particulars: 0.18 nM CDK2/Cyclin E1, 100 μM ATP, Histone H1, 37° C.; read-out: ADPGLO (CDK2/E1-37C): IC50. Put shortly:
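Activated CDK2/Cyclin E1 (0.18 nM final) preincubated with compound 60 min at 37 °C, then reacted with 100 μM ATP and Histone H1 ([…]) for 90 min at 37 °C in HEPES pH 7.5 buffer. ADP-Glo luminescence normalized to % activity; IC50 from four-parameter fit.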

Assay [2] deals with T1, CDK2/Cyclin E1. The experiment in a line: Caliper LabChip EZ Reader mobility shift assay. Format: biochemical. The settings on record: 2.5 nM CDK2/Cyclin E1(14-475), 100 μM ATP, 30 min preincubation; read-out: Caliper Assay (CDK2/CCNE1): IC50. Put shortly:
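Mobility-shift assay with CDK2/Cyclin E1(14-475) at 2.5 nM, 100 μM ATP and 1.5 μM 5-FAM-QSPKKG-CONH2 in HEPES pH 7.5 buffer with 0.1% DMSO. Compounds were preincubated with enzyme and ATP for 30 min, the reaction ran 100 min and was stopped with EDTA. IC50 came from a four-parameter fit of normalized conversion ratio.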

A further assay relates to Kuramochi cells RB-WT. In words: IncuCyte Kuramochi cell proliferation assay, RB-WT. The format is cell-based. Particulars: 72 hours, cell count. Put shortly: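 mApple-H2B-labelled Kuramochi cells were treated with a 10-point, half-log series (top 20 µM) and imaged at 0 and 72 h. Fluorescent nuclei were counted, and the 0–72 h fold change was normalized to DMSO wells. GI50 came from dose-response fits.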

The subject of assay [3] is mouse models of polycystic kidney disease. Particulars: Bukanov et al., Nature 2006; cited from earlier work.

Several values for one entry are separate records, joined by “and”; a condition that tells them apart may be missing. Identical values can stand only once.

In the case of `COC(=O)c1c(COCC2CN(C(=O)c3cncs3)CC23CN(C(=O)[C@H]2CC2(C)C)C3)cccc1-c1ccc(C(F)(F)F)cc1` (stereo partly drawn) [Compound I-5, methyl 3-(((2-((S)-2,2-dimethylcyclopropane-1-carbonyl)-6-(thiazole-5-carbonyl)-2,6-diazaspiro[3.4]octan-8-yl)methoxy)methyl)-4′-(trifluoromethyl)-[1,1′-biphenyl]-2-carboxylate], the IC50 fell in the range of 0.5 to 5 µM at CDK2/Cyclin E1 [1], 0.01 to 0.1 µM on CDK2/Cyclin E1 [2] and 5 to 10 µM with Kuramochi cells RB-WT.

In the case of `CC1(C)C[C@@H]1C(=O)N1CC2(CN(C(=O)c3cnn(Cc4ccc(C(=O)O)cc4)c3)CC2COCc2cccc(-c3ccc(C(F)(F)F)cc3)n2)C1` (stereo partly drawn) [Compound I-6, 4-((4-(2-((S)-2,2-dimethylcyclopropane-1-carbonyl)-8-(((6-(4-(trifluoromethyl)phenyl)pyridin-2-yl)methoxy)methyl)-2,6-diazaspiro[3.4]octane-6-carbonyl)-1H-pyrazol-1-yl)methyl)benzoic acid], the figures for the IC50 on CDK2/Cyclin E1 [1], on CDK2/Cyclin E1 [2] and in the assay on Kuramochi cells RB-WT were greater than 10 µM, 1 to 10 µM and greater than 10 µM, respectively.

For `Cc1c(COC[C@@H]2CN(C(=O)c3cncs3)CC23CN(C(=O)[C@H]2CC2(C)C)C3)cccc1C1CCOCC1` [Compound I-31, ((S)-2-((S)-2,2-dimethylcyclopropanecarbonyl)-8-(((2-methyl-3-(tetrahydro-2H-pyran-4-yl)benzyl)oxy)methyl)-2,6-diazaspiro[3.4]octan-6-yl)(thiazol-5-yl)methanone], the IC50 is 0.5 to 5 µM at CDK2/Cyclin E1 [1], 0.1 to 1 µM at CDK2/Cyclin E1 [2] and 5 to 10 µM in the assay on Kuramochi cells RB-WT.

As to `CC1(C)C[C@@H]1C(=O)N1CC2(CN(C(=O)c3cncs3)C[C@H]2COCc2cccc(-c3ccc(C(F)(F)F)cc3)n2)C1` [Compound I-34, ((S)-2-((S)-2,2-dimethylcyclopropane-1-carbonyl)-8-(((6-(4-(trifluoromethyl)phenyl)pyridin-2-yl)methoxy)methyl)-2,6-diazaspiro[3.4]octan-6-yl)(thiazol-5-yl)methanone], the IC50 on CDK2/Cyclin E1 [1] lay within 0.5 to 5 µM; at CDK2/Cyclin E1 [2] it was 0.01 to 0.1 µM; in the assay on Kuramochi cells RB-WT, 5 to 10 µM.

`CC1(C)C[C@@H]1C(=O)N1CC2(CN(C(=O)c3cncs3)C[C@H]2COCc2cccc(-c3ccccc3)n2)C1` [Compound I-36, ((S)-2-((S)-2,2-dimethylcyclopropanecarbonyl)-8-(((6-phenylpyridin-2-yl)methoxy)methyl)-2,6-diazaspiro[3.4]octan-6-yl)(thiazol-5-yl)methanone]: the IC50 at CDK2/Cyclin E1 [1] was 5 to 10 µM; at CDK2/Cyclin E1 [2], 0.1 to 1 µM; with Kuramochi cells RB-WT it was greater than 10 µM.

`CC1(C)C[C@@H]1C(=O)N1CC2(CN(C(=O)c3cncs3)C[C@H]2COCc2ccn(C3CCCC3)n2)C1` [Compound I-38, ((S)-8-(((1-cyclopentyl-1H-pyrazol-3-yl)methoxy)methyl)-2-((S)-2,2-dimethylcyclopropane-1-carbonyl)-2,6-diazaspiro[3.4]octan-6-yl)(thiazol-5-yl)methanone]: the figures for the IC50 at CDK2/Cyclin E1 [1], on CDK2/Cyclin E1 [2] and in the assay with Kuramochi cells RB-WT were greater than 10 µM, 0.1 to 1 µM and greater than 10 µM, respectively.

Regarding `CC1(C)C[C@@H]1C(=O)N1CC2(CN(C(=O)c3cncs3)C[C@H]2COCc2cccc(C3CCOCC3)c2)C1` [Compound I-39, ((S)-2-((S)-2,2-dimethylcyclopropane-1-carbonyl)-8-(((3-(tetrahydro-2H-pyran-4-yl)benzyl)oxy)methyl)-2,6-diazaspiro[3.4]octan-6-yl)(thiazol-5-yl)methanone], the values for the IC50 on CDK2/Cyclin E1 [1], on CDK2/Cyclin E1 [2] and in the assay on Kuramochi cells RB-WT were greater than 10 µM, 0.1 to 1 µM and greater than 10 µM, respectively.

On to `CC1(C)C[C@@H]1C(=O)N1CC2(CN(C(=O)c3cncs3)C[C@H]2COCc2cccc(C3CCOCC3)n2)C1` [Compound I-49, (2-((S)-2,2-dimethylcyclopropane-1-carbonyl)-8-(((6-(tetrahydro-2H-pyran-4-yl)pyridin-2-yl)methoxy)methyl)-2,6-diazaspiro[3.4]octan-6-yl)(thiazol-5-yl)methanone], for which the IC50 is 5 to 10 µM on CDK2/Cyclin E1 [1]; 1 to 10 µM and 0.1 to 1 µM on CDK2/Cyclin E1 [2]; greater than 10 µM with Kuramochi cells RB-WT.

Consider `O=C(O)C(Cc1cccc(-c2ccc(C(F)(F)F)cc2)n1)CC1CN(C(=O)c2cnn(Cc3ccc(C(F)(F)F)cc3)c2)CC12CN(C(=O)C1(C(F)(F)F)CC1)C2` (stereo not shown) [Compound I-50, 2-((6-(1-(4-(trifluoromethyl)benzyl)-1H-pyrazole-4-carbonyl)-2-(1-(trifluoromethyl)cyclopropane-1-carbonyl)-2,6-diazaspiro[3.4]octan-8-yl)methyl)-3-(6-(4-(trifluoromethyl)phenyl)pyridin-2-yl)propanoic acid], for which the IC50 at CDK2/Cyclin E1 [1], at CDK2/Cyclin E1 [2] and with Kuramochi cells RB-WT was greater than 10 µM throughout.

As for `CC[C@H](CO)Nc1nc(NCc2ccccc2)c2ncn(C(C)C)c2n1` [roscovitine], in assay [3], the “arrest of cystic kidney disease” value is “effective arrest of cystic kidney disease”.
